# Results taken from patent publication US11639503B2, “Anti-chymase aptamer and use for same” (RIBOMIC INC., priority 2017, dated 2023).
# Oligonucleotides are written 5' to 3', each unit as a sugar letter and its base; * is a phosphorothioate linkage, no mark a phosphodiester; rarer units and linkages stand in square brackets, end groups in braces. Plain capitals give the bases only. r = 2'-OH (RNA); f = 2'-fluoro
# T1: chymase (recombinant, manufactured by SIGMA) (Homo sapiens, UniProt P23946)
# T1 construct: purchased SIGMA
# T1 sequence (P23946 22-247): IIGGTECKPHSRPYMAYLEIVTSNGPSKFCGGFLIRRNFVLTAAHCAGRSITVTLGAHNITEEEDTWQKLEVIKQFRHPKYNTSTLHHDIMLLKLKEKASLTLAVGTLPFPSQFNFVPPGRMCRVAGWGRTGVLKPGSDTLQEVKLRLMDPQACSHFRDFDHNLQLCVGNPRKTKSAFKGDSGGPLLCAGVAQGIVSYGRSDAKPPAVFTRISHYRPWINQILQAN
# T2: chymase purified from human skin mast cell (native, Calbiochem) (Homo sapiens, UniProt P23946)
# T2 construct: Here, the native is chymase purified from human skin mast cell; purchased Calbiochem; host or cells: human skin mast cell (tissue-derived)
# T2 sequence (P23946 22-247): T1 sequence (P23946 22-247)
# B1: 10 (nucleic acid)
# chain: rGrGrGrArAfCrGrArArGfCrGrAfCrArGrAfCfCrGrArAfUfCrArGrArArGfUfUfCrArAfCrAfUrGrGrAfCrAfUrArAfCrAfUfCrGrAfUrGrGrGrGfUrGfUfCrArArGfUrAfCfUrGrAfCrGrAfCrArGrA
# B2: 9 (nucleic acid)
# chain: rGrGrGrArAfCrGrArArGfCrGrAfCrArGrAfCrGfUfUfCfCrArGfCrGfUfCfUrArAfUrAfCrGfUrGrArAfUrArAfCfCfUrGrAfUfCrGfUrArGrGrGrGrGfUfUfCrArArGfUrAfCfUrGrArGrGrAfCrArGrA
# Key:
# [1] = target: T1, chymase (recombinant, manufactured by SIGMA); experiment: chymase enzyme activity inhibition, synthetic substrate Suc-Ala-Ala-Pro-Phe-MCA; format: biochemical; conditions: Table 5; MCA substrate, amount of chymase 0.005 μg instead of 0.05 μg; one measurement
# Protocol: A first method employs a synthetic substrate. A useful chymase substrate is Suc-Ala-Ala-Pro-Phe-MCA (4-methylcoumaryl-7-amide group) (manufactured by Peptide Institute, Inc.), which contains the 4-amino acid peptide “Ala-Ala-Pro-Phe” (SEQ ID NO: 41), a standard substrate for chymotrypsin-like proteases.
# The assay is performed using a 96-well plate (F16 Black Maxisorp Fluoronunc, manufactured by Nunc), with a reaction mixture volume of 100 μL, in a buffer solution (solution C; see Example 2 below). First, each nucleic acid is prepared in solution C to obtain 50 μL solutions. After 10 μL of the 1 mM substrate prepared in solution C is added, the plate is set to the microplate reader SpectraMax190 (manufactured by Molecular Devices Corporation), and incubated at 37° C. for 5 minutes. Separately, 0.05 μg of chymase (recombinant, manufactured by SIGMA) is diluted in solution C, and 40 μL of this dilution is incubated at 37° C. for 5 minutes. The chymase solution is added to the mixture of the nucleic acid and substrate to initiate an enzyme reaction. The plate containing the reaction mixture is set to the microplate reader SpectraMax190 (manufactured by Molecular Devices Corporation), and examined for time-dependent changes in the fluorescence intensity at 37° C. for 5 minutes (excitation wavelength 380 nm, detection wavelength 460 nm). A linear approximation of the increase in the fluorescence of the AMC (7-amino-4-methylcoumarine) released from the substrate by chymase activity is generated, and its slope is taken as the initial reaction velocity. For control, samples are treated and analyzed in the same manner in two cases: use of a nucleic acid pool containing a random sequence of 30 or 40 nucleotides (negative control), and use of chymostatin, a known chymotrypsin-like serine protease inhibitor (positive control). Taking the initial reaction velocity without the nucleic acid and inhibitor as a 100% enzyme activity, the inhibitory rate for each test substance is calculated, and the inhibitor concentration required to cause a 50% inhibition of the enzyme activity (IC50) is determined.
# Whether the nucleic acids shown by SEQ ID NO: 1-8 inhibit the enzyme activity of chymase was determined as described below. The chymase substrate used was Suc-Ala-Ala-Pro-Phe-MCA (manufactured by Peptide Institute, Inc.), which contains the 4-amino-acid peptide Ala-Ala-Pro-Phe, a standard substrate for chymotrypsin-like proteases. Here, Suc is a protecting succinyl group, and MCA is a 4-methylcoumaryl-7-amide group; upon cleavage of the C-terminal side of phenylalanine, AMC (7-amino-4-methylcoumarine) is released. By detecting the fluorescence of this AMC, the enzyme activity of chymase can be determined. The assay was performed using a 96-well plate (F16 Black Maxisorp Fluoronunc, manufactured by Nunc), with a reaction mixture volume of 100 μL, in solution C as a buffer solution. Here, the solution C is a mixed solution of 145 mM sodium chloride, 5.4 mM potassium chloride, 1.8 mM calcium chloride, 0.8 mM magnesium chloride, 20 mM Tris (pH 7.6), and 0.05% Tween20. First, nucleic acid was serially diluted in solution C to obtain 50 μL solutions. After 10 μL of the 1 mM substrate prepared in solution C was added thereto, the plate was set to the microplate reader SpectraMax190 (manufactured by Molecular Devices Corporation), and incubated at 37° C. for 5 minutes. […] The chymase solution was added to the mixture of the nucleic acid and substrate to initiate an enzyme reaction. The final chymase concentration in the reaction mixture was 16.7 nM, the final substrate concentration being 100 μM. The plate containing the reaction mixture was set to the microplate reader SpectraMax190 (manufactured by Molecular Devices Corporation), and examined for time-dependent changes in the fluorescence intensity at 37° C. for 5 minutes (or 30 minutes) (excitation wavelength 380 nm, detection wavelength 460 nm). […]
# [2] = target: T2, chymase purified from human skin mast cell (native, Calbiochem); experiment: chymase enzyme activity inhibition, native substrate angiotensin I (His-Leu fluorescence); format: biochemical; conditions: mean of 2 or 3 measurements
# Protocol: A second method of evaluation employs a native substrate. A useful native substrate for chymase is angiotensin I. Here, His-Leu, a peptide fragment released upon degradation of angiotensin I, is fluorescently derivatized, and the fluorescence intensity therefrom is quantified.
# In the assay, an enzyme reaction is carried out in 50 μL of solution C. First, 0.3-0.75 ng of chymase (recombinant, manufactured by SIGMA; or native, manufactured by Calbiochem) is diluted in solution C to obtain 5 μL chymase solution. Each nucleic acid is prepared in solution C to obtain 25 μL solutions. 5 μL of each chymase dilution and 25 μL of each nucleic acid solution are mixed, and then the mixture is incubated at 37° C. for 5 minutes. Separately, 20 μL of 125 μM angiotensin I (manufactured by Peptide Institute, Inc.) is prepared in solution C and incubated at 37° C. for 5 minutes. The angiotensin I solution is added to the mixture of chymase and nucleic acid, and the enzyme reaction is initiated. After the reaction was allowed to proceed at 37° C. for 90 minutes, 25 μL of ice-cooled 30% trichloroacetic acid solution is added to terminate the reaction. The entire mixture is centrifuged at 4° C., 14000 rpm for 10 minutes, and 30 μL of the resulting supernatant is used for the subsequent reaction for fluorescent derivatization.
# After 30 μL of the supernatant is added to a 96-well plate (Black, manufactured by Costar), 15 μL of 2% o-phthalaldehyde (manufactured by SIGMA) solution in methanol and 170 μL of 0.3M NaOH solution are mixed in each well, and the plate is allowed to stand at room temperature for 10 minutes. Subsequently, 25 μL of 3M HCl solution is added to terminate the reaction. The plate is set to the microplate reader SpectraMax190 (manufactured by Molecular Devices Corporation), and the fluorescence intensity is determined at an excitation wavelength of 355 nm and a fluorescence wavelength of 460 nm.
# For control, samples are treated and analyzed in the same manner in two cases: use of SEQ ID NO: 58 (negative control) and use of chymostatin, a known chymotrypsin-like serine protease inhibitor (positive control). In both cases, fluorescence intensity obtained at 0 minute reaction time serves as a blank determination. Taking the fluorescence intensity detected with the addition of an equal volume of solution C, in place of each nucleic acid, in the chymase enzyme reaction as 100%, the inhibitory rate for each test substance is calculated, and the inhibitor concentration required to cause a 50% inhibition of the enzyme activity (IC50) is determined.
# Whether the nucleic acids shown by SEQ ID NO: 9 and 10 inhibit the enzyme activity of chymase was determined by the following method. Angiotensin I is converted by chymase to angiotensin II, during which a peptide fragment His-Leu is released. Since the peptide His-Leu is fluorescently derivatized by o-phthalaldehyde, its fluorescence intensity can be quantitatively measured.
# The total volume of solution for an enzyme reaction in the assay was set to 50 μL, and the reaction was performed in solution C buffer. At first, native (manufactured by Calbiochem) was diluted with solution C to give 5 μL thereof. Here, the native is chymase purified from human skin mast cell. The nucleic acid was serially diluted with solution C at a concentration of 0.0027-2 μM to give 25 μL thereof. The chymase solution (5 μL) and the nucleic acid solution (25 μL) were mixed, and the mixture was incubated at 37° C. for 5 min. On the other hand, […] angiotensin I (manufactured by PEPTIDE INSTITUTE, INC.) was prepared in solution C to give 20 μL thereof, which was incubated at 37° C. for 5 min. The angiotensin I solution was added to a mixture of chymase and nucleic acid to start an enzyme reaction. The final chymase concentration of the reaction solution was 0.5 nM, and the final substrate concentration was 50 μM. […]
# [3] = Table 3, angiotensin I as substrate, >1 = no inhibitory activity up to 1 μM
# [4] = Table 6, angiotensin I as substrate
# [5] = Table 4, angiotensin I as substrate
# [6] = Table 2, substrate angiotensin I 50 μM, chymase 0.5 nM, 37° C. 90 min
molecule,measurement,setting,value
"25 (GGCAGAUGAUCGGACAUAACAAGAUAGAGUUAAAUGGGGUGUCAA; 2'-fluoro at CU, RNA at AG, backbone not given here) [compound 25]",IC50,[1],5.8 nM
"24 (GGCAGAUGAUCGGACAUAACAUAGAUAGAGUUAAAAUGGGGUGUCAA; 2'-fluoro at CU, RNA at AG, backbone not given here) [compound 24]",IC50,[1],3.7 nM
"15 (GAUGAUCGGACAUAACAUUGUUGGGGUGUCAAGCC; 2'-fluoro at CU, RNA at AG, backbone not given here) [compound 15]",IC50,[2]; [3],1.4 nM
"33(12) (AUGAUCGGACAUAACUAAUUAGGGGUGUCAA; modification pattern variant (12), chemistry not fully specified)",IC50,[2]; [4],0.048 nM
"16 (GGCAGAUGAUCGGACAUAACAUUGUUGGGGUGUCAA; 2'-fluoro at CU, RNA at AG, backbone not given here) [compound 16]",IC50,[2]; [3],2 nM
"14 (GGCAGAUGAUCGGACAUAACAUUGUUGGGGUGUCAAGCC; 2'-fluoro at CU, RNA at AG, backbone not given here) [compound 14]",IC50,[2]; [3],6.8 nM
"17(6) (GAUGAUCGGACAUAACAUUGUUGGGGUGUCAA; aptamer; 2'-O-methyl, idT end and other modifications, positions not given here)",IC50,[2]; [5],0.14 nM
"17(11) (GAUGAUCGGACAUAACAUUGUUGGGGUGUCAA; aptamer; 2'-O-methyl, idT end and other modifications, positions not given here)",IC50,[2]; [5],0.14 nM
"17(2) (GAUGAUCGGACAUAACAUUGUUGGGGUGUCAA; aptamer; 2'-O-methyl, idT end and other modifications, positions not given here)",IC50,[2]; [5],0.21 nM
"33(6) (AUGAUCGGACAUAACUAAUUAGGGGUGUCAA; aptamer; modified variant with 2'-O-methyl and end modifications, pattern not given here)",IC50,[2]; [4],0.053 nM
"17(25) (GAUGAUCGGACAUAACAUUGUUGGGGUGUCAA; 2'-O-methyl, idT end and other modifications, positions not given here)",IC50,[2]; [5],0.2 nM
"17(22) (GAUGAUCGGACAUAACAUUGUUGGGGUGUCAA; aptamer; 2'-O-methyl, idT end and other modifications, positions not given here)",IC50,[2]; [5],0.17 nM
"17(19) (GAUGAUCGGACAUAACAUUGUUGGGGUGUCAA; aptamer; 2'-O-methyl, idT end and other modifications, positions not given here)",IC50,[2]; [5],0.19 nM
"17(4) (GAUGAUCGGACAUAACAUUGUUGGGGUGUCAA; aptamer; 2'-O-methyl, idT end and other modifications, positions not given here)",IC50,[2]; [5],0.2 nM
"17(1) (GAUGAUCGGACAUAACAUUGUUGGGGUGUCAA; 2'-O-methyl, idT end and other modifications, positions not given here)",IC50,[2]; [5],44.4 nM
"19 (AUCGGACAUAACAUUGUUGGGGUGUCAA; 2'-fluoro at CU, RNA at AG, backbone not given here) [compound 19]",IC50,[2]; [3],14.4 nM
"33(10) (AUGAUCGGACAUAACUAAUUAGGGGUGUCAA; aptamer; modified variant with 2'-O-methyl and end modifications, pattern not given here)",IC50,[2]; [4],0.071 nM
"33(17) (AUGAUCGGACAUAACUAAUUAGGGGUGUCAA; aptamer; modified variant with 2'-O-methyl and end modifications, pattern not given here)",IC50,[2]; [4],0.038 nM
B1,IC50,[2]; [6],0.43 nM
B2,IC50,[2]; [6],0.22 nM
